According to the NIST ThermoML archive (doi:10.1007/s10765-009-0579-1):

Experiment: xn = mol fraction of the nth substance listed
Details: 423.15 K, Gas; for viscosity: Oscillating disk viscometry; for mass density: Pycnometric method

CC(F)(F)Cl [1-chloro-1,1-difluoroethane] + FC(F)Cl
Details | mass density [kg/m3] | viscosity [mPa·s]
102.1 kPa, x2 = 0.2615 | 2.829 | 0.01579
102.2 kPa, x2 = 0.5169 | 2.723 | 0.01631
346.2 kPa, x2 = 0.5169 | 9.354 | 0.01634
390.7 kPa, x2 = 0.7502 | 10.18 | 0.01687
394 kPa, x2 = 0.2615 | 11.13 | 0.01581
642 kPa, x2 = 0.5169 | 17.67 | 0.01639
685.5 kPa, x2 = 0.7502 | 18.14 | 0.01697
686.5 kPa, x2 = 0.2615 | 19.8 | 0.01588
935.8 kPa, x2 = 0.5169 | 26.24 | 0.01646
978.6 kPa, x2 = 0.2615 | 28.81 | 0.01594
1026 kPa, x2 = 0.7502 | 27.65 | 0.01702
1230 kPa, x2 = 0.5169 | 35.16 | 0.01657
1273 kPa, x2 = 0.2615 | 38.54 | 0.01604
1368 kPa, x2 = 0.7502 | 37.56 | 0.01711
1537 kPa, x2 = 0.5169 | 44.54 | 0.01663
1569 kPa, x2 = 0.2615 | 48.6 | 0.01618
1706 kPa, x2 = 0.7502 | 47.76 | 0.01724
1832 kPa, x2 = 0.5169 | 54.69 | 0.01677
1878 kPa, x2 = 0.2615 | 59.81 | 0.01632
2055 kPa, x2 = 0.7502 | 58.73 | 0.01731
2158 kPa, x2 = 0.2615 | 70.63 | 0.0165
2158 kPa, x2 = 0.5169 | 65.98 | 0.01694
2415 kPa, x2 = 0.7502 | 70.79 | 0.0175
2436 kPa, x2 = 0.2615 | 81.74 | 0.01671
2444 kPa, x2 = 0.5169 | 76.64 | 0.01711
2719 kPa, x2 = 0.7502 | 81.34 | 0.01769
2740 kPa, x2 = 0.5169 | 88.1 | 0.01736
2797 kPa, x2 = 0.2615 | 98.1 | 0.01703
3055 kPa, x2 = 0.5169 | 101.2 | 0.01765
3152 kPa, x2 = 0.2615 | 115.5 | 0.01743
3159 kPa, x2 = 0.7502 | 97.7 | 0.01797
3389 kPa, x2 = 0.5169 | 116.1 | 0.01791
3440 kPa, x2 = 0.2615 | 131.6 | 0.01785
3481 kPa, x2 = 0.7502 | 110.3 | 0.01829
3680 kPa, x2 = 0.2615 | 145.8 | 0.01822
3703 kPa, x2 = 0.5169 | 131.2 | 0.0183
3855 kPa, x2 = 0.7502 | 126.4 | 0.01863
3921 kPa, x2 = 0.2615 | 160.9 | 0.01868
3992 kPa, x2 = 0.5169 | 146.2 | 0.01874
4203 kPa, x2 = 0.7502 | 142 | 0.01894
4227 kPa, x2 = 0.2615 | 184.1 | 0.01939
4325 kPa, x2 = 0.5169 | 165.2 | 0.01926
4504 kPa, x2 = 0.2615 | 207.1 | 0.02023
4560 kPa, x2 = 0.7502 | 159.4 | 0.01947
4634 kPa, x2 = 0.5169 | 184.7 | 0.01988
4740 kPa, x2 = 0.2615 | 230.5 | 0.0212
4895 kPa, x2 = 0.5169 | 203.4 | 0.02048
4897 kPa, x2 = 0.7502 | 176.4 | 0.01997
4956 kPa, x2 = 0.2615 | 254.1 | 0.0222
5173 kPa, x2 = 0.5169 | 223.6 | 0.02124
5183 kPa, x2 = 0.2615 | 285.1 | 0.02361
5286 kPa, x2 = 0.2615 | 294.5 | 0.02439
5301 kPa, x2 = 0.7502 | 200.1 | 0.02057
5380 kPa, x2 = 0.5169 | 240.7 | 0.02187
5605 kPa, x2 = 0.7502 | 219.3 | 0.02121
5612 kPa, x2 = 0.5169 | 261.9 | 0.02295
5795 kPa, x2 = 0.5169 | 280.3 | 0.02357
5936 kPa, x2 = 0.7502 | 242.2 | 0.02202
6270 kPa, x2 = 0.7502 | 267.2 | 0.02299
